In patent US20040049072A1, “RXR modulators with improved pharmacologic profile” (priority 1999, published 2004):
pKi: −log10 of the molar value. Entries after “also recorded” stand apart in the source; their conditions may differ. Like-named read-outs stand apart in the source and are kept apart here.

Assays:
[1] = system: Crl:CD-1 (ICR)BR mice; test: teratogenicity in pregnant Crl:CD-1 (ICR)BR mice; type: in vivo, mouse
Method: Teratogenicity is commonly evaluated by examination of fetuses obtained by cesarean section from pregnant mice dosed daily with test compound between gestation days 6-18. We have conducted a blinded study using time-mated female Crl:CD-1® (ICR)BR mice to evaluate potential developmental toxicity (teratogenicity) following administration of L6 at either 30 or 200 mg/kg-day by daily oral gavage for the specified […] of gestation. Each test group consisted of 7-8 pregnant females and produced approx. 100 live fetuses per test group. […] The highest dose of L6 tested (200 mg/kg-day) is twice the dose required to produce maximum antidiabetic activity in db/db mice (100 mg/kg-day).

[2] = system: db/db mouse; test: db/db mouse study (rodent model of Type II diabetes); conditions: for insulin sensitizing activity with thyroid axis suppression and triglyceride elevations: rodent models of Type II Diabetes; for inhibition in vivo at 30 mg/kg: Mus musculus, po, 168 h, read-out: db/db mouse Glu. (D7); for db/db mouse Trigs. (D3): plasma triglycerides as % of control values, day 3, 30 mg/kg/day
[3] = biological target: T1, RXRα (Homo sapiens, UniProt P19793); test: RXRα binding (competition with tritiated LGD1069)
T1 sequence (P19793 1-462): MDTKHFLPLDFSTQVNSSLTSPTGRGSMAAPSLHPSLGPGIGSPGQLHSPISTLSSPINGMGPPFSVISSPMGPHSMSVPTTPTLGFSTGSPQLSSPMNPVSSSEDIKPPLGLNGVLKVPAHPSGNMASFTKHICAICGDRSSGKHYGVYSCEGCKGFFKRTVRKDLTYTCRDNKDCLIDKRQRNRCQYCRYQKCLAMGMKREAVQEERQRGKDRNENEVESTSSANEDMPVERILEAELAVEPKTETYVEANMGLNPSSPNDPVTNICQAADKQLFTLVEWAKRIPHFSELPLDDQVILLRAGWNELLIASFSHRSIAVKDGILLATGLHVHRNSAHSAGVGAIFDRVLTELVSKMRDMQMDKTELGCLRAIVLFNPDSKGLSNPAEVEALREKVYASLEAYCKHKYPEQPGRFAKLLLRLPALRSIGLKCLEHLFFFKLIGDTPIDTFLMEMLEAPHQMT
Method: Non-specific binding was defined as that binding remaining in the presence of 500 nM of the appropriate unlabelled compound. At the end of the incubation period, bound ligand was separated from free. The amount of bound tritiated retinoid was determined by liquid scintillation counting of an aliquot (700 μL) of the supernatant fluid or the hydroxylapatite pellet.
After correcting for non-specific binding, IC50 values were determined. […] The IC50 value was determined graphically from a log-logit plot of the data. The Ki values were determined by application of the Cheng-Prussof equation to the IC50 values, the labeled ligand concentration and the Kd of the labeled ligand.

[4] = biological target: T2, RXRα homodimer (RXR:RXR) (Homo sapiens, UniProt P19793); test: RXR homodimer co-transfection assay in CV-1 cells; type: cell-based; conditions: CV-1, read-out: RXR:RAR CV-1 (%) Ag.
T2 sequence (P19793 1-462): T1 sequence (P19793 1-462)
Source text: In the co-transfection assay, cloned cDNA for one or more IRs (e.g., human RARα, RXRα, or PPARγ), alone or in combination (i.e. for heterodimer assays) under the control of a constitutive promoter (e.g., the SV 40, RSV or CMV promoter) is introduced by transfection (a procedure to introduce exogenous genes into cells) into a background cell substantially devoid of endogenous IRs. These introduced gene(s) direct the recipient cells to make the IR protein(s) of interest. A further gene is also introduced (co-transfected) into the same cells in conjunction with the IR gene(s). This further gene, comprising the cDNA for a reporter protein, such as firefly luciferase (LUC), controlled by an appropriate hormone responsive promoter containing a hormone response element (HRE). This reporter plasmid functions as a reporter for the transcriptional-modulating activity of the target IR(s). Thus, the reporter acts as a surrogate for the products (mRNA then protein) normally expressed by a gene under control of the target receptor(s) and their native hormone(s).
Exposing the transfected cells to an agonist ligand compound increases reporter activity in the transfected cells. This activity can be conveniently measured, e.g., by increasing luciferase production and enzymatic activity, which reflects compound-dependent, IR-mediated increases in reporter transcription. […] Increasing concentrations of an antagonist will decrease the reporter signal (e.g., luciferase production). The co-transfection assay is therefore useful to detect both agonists and antagonists of specific IRs. Furthermore, it determines not only whether a compound interacts with a particular IR, but whether this interaction mimics (agonizes) or blocks (antagonizes) the effects of native or synthetic regulatory molecules on target gene expression, as well as the specificity and strength of this interaction.
The receptor expression plasmid was cotransfected along with a reporter plasmid at 50 ng/well, the internal control plasmid pRS-β-Gal at 50 ng/well and filler DNA, pGEM, at 90 ng/well.
Six hours after transfection, media was removed and the cells were washed with phosphate-buffered saline (PBS). Media containing compounds of the present invention in concentrations ranging from 10^−10 to 10^−5 M were added to the cells. […] Retinoids were dissolved in dimethylsulfoxide for use in the transcriptional activation assays. Two to three replicates were used for each sample. Transfections and subsequent procedures were performed on a Biomek 1000 automated workstation.
After 40 hours, the cells were washed with PBS, lysed with a detergent-based buffer and assayed for LUC and β-Gal activities using a luminometer or spectrophotometer, respectively. For each replicate, the normalized response (NR) was calculated as: […]
The mean and standard error of the mean (SEM) of the NR were calculated. Data were plotted as the response of the compound compared to the reference compounds over the range of the dose-response curve. […] Antagonist activity was determined by testing the amount of LUC expression in the presence of the RXR agonists described above at the EC50 concentration for such known compounds. […] In addition, the efficacy of antagonists was determined as a function (%) of maximal inhibition.

[5] = biological target: T3, RXRα:RAR heterodimer (Homo sapiens, UniProt P19793); test: RXR:RAR heterodimer co-transfection assay in CV-1 cells; type: cell-based; conditions: CV-1, read-out: RXR:RAR CV-1 (%) Ag.
T3 construct: expressed in transfected cells; host or cells: CV-1 cells
T3 sequence (P19793 1-462): T1 sequence (P19793 1-462)
Method: (§1) For determination of agonist activity in the context of the RXR:RAR heterodimer or the RXR:PPARγ heterodimer, media containing compounds of the present invention in concentrations ranging from 10^−10 to 10^−5 M were added to the cells.
(§2) Compounds of the present invention were also tested for the ability to synergize with a PPARγ agonist in the context of an RXR heterodimer. […] Efficacy of the compounds of the present invention in the agonist and synergy assays was calculated as the maximum response obtained over the range of the dose response curve relative to the maximum response obtained by the reference agonist. Antagonist efficacy was determined as a function (%) of maximal inhibition.
However, when RAR is occupied, typical RXR agonists activate the heterodimer. […] To examine the effects of the compounds of the present invention on the transcriptional properties of the RXR:RAR heterodimer, a heterodimer cotransfection assay as described above was employed.

[6] = biological target: T4, RXRα:PPARγ heterodimer (Homo sapiens, UniProt P19793); test: RXR:PPARγ heterodimer co-transfection assay in CV-1 cells; type: cell-based
T4 construct: expressed in transfected cells; host or cells: CV-1 cells
T4 sequence (P19793 1-462): T1 sequence (P19793 1-462)
T4 sequence (P37231 1-505 partner): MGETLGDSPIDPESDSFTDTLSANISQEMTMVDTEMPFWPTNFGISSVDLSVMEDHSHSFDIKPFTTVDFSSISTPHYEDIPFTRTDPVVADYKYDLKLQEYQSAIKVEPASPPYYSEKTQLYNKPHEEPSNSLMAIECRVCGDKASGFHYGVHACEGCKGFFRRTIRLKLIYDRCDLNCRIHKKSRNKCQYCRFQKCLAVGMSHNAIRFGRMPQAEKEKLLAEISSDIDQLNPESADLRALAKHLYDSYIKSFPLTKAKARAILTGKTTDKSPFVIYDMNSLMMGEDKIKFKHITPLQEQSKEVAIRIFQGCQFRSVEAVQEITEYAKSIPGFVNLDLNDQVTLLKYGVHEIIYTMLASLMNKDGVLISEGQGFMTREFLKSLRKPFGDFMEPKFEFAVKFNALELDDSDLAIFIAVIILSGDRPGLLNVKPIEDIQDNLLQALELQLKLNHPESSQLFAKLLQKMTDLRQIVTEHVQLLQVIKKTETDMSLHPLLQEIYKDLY
Method: as §1, §2
To examine the effects of the compounds of the present invention on the transcriptional properties of the RXR:PPARγ, a heterodimer cotransfection assay as described above was employed.

[7] = Table 2, from IC50 by Cheng-Prussof equation, tritiated LGD1069, read-out: Bind RXRα Ki
[8] = Table 2, maximal response in presence of 100 nM BRL49653 relative to BRL49653 alone

For CCCCOc1c(\C(C)=C/C=C/C(C)=C/C(=O)O)cc(C(C)C)cc1C(C)C [Compound L6], the “Corpora lutea, implantation sites, live or dead fetuses, resorptions, fetal weight or sex, external and cranial visceral morphology” value ([1]; L6 at 30 or 200 mg/kg-day compared to vehicle controls) was “no effects were observed”, the teratogenicity in fetuses ([1]; daily oral gavage, gestation days 6-18, L6 30 or 200 mg/kg-day, LG100268 30 or 100 mg/kg-day) was “no teratogenic effects were observed” and the “dose required to produce maximum antidiabetic activity in db/db mice” value ([2]; db/db mice) was 100 mg/kg-day. The “insulin sensitizing activity with thyroid axis suppression and triglyceride elevations” value (“insulin sensitizing activity” for short) [2] was “maintain the desirable insulin sensitizing activity and eliminate or reduce both the suppression of the thyroid axis and triglyceride elevations; also recorded: maintain the desirable insulin sensitizing activity and minimize both the suppression of the thyroid axis and triglyceride elevations”.
In the case of CCOc1c(\C(C)=C/C=C/C(C)=C/C(=O)O)cc(C(F)(F)C(F)(F)F)cc1C(C)C [Compound L15], the pKi [3, 7] was 8.22, the Emax [4] was 44% and the Emax [5] was 1%. For the same compound, the “PPARγ CV-1 (%) Synergy” value [6] was 99%, the inhibition in vivo at 30 mg/kg [2] was 80% and the “db/db mouse Trigs. (D3)” value [2] was 156%. The “insulin sensitizing activity” value [2] was “maintain the desirable insulin sensitizing activity and minimize both the suppression of the thyroid axis and triglyceride elevations”.
In the case of CCc1cc(-c2ccsc2/C=C/C(C)=C/C(=O)O)c(OCCCC(F)(F)F)c(C(C)(C)C)c1 [Compound L16], the pKi [3] was 8.70, the Emax [4] was 1% and the Emax [5] was 2%. The “PPARγ CV-1 (%) Synergy” value [6, 8] was 64%, the inhibition in vivo at 30 mg/kg [2] was 37% and the “db/db mouse Trigs. (D3)” value [2] was 79%. For the same compound, the “insulin sensitizing activity” value [2] was “maintain the desirable insulin sensitizing activity and minimize both the suppression of the thyroid axis and triglyceride elevations”.
CCc1cc(-c2ccsc2/C=C/C(C)=C/C(=O)O)c(OCCCF)c(C2CCCC2)c1 [Compound L17] was tested, and the pKi [3] was 8.10, the Emax [4] was 3% and the Emax [5] was 4%. The “PPARγ CV-1 (%) Synergy” value [6, 8] was 88%, the inhibition in vivo at 30 mg/kg [2] was 29% and the “db/db mouse Trigs. (D3)” value [2] was 75%. For the same compound, the “insulin sensitizing activity” value [2] was “maintain the desirable insulin sensitizing activity and minimize both the suppression of the thyroid axis and triglyceride elevations”.
CCC(C)(C)c1cc(\C(C)=C/C=C/C(C)=C/C(=O)O)c(OCC(F)F)c(C(C)(C)CC)c1 [Compound L18] gave a pKi [3, 7] of 7.54, an Emax [4] of 2% and an Emax [5] of 1%. The “PPARγ CV-1 (%) Synergy” value [6, 8] was 69%, the inhibition in vivo at 30 mg/kg [2] was 45% and the “db/db mouse Trigs. (D3)” value [2] was 134%. The “insulin sensitizing activity” value [2] was “maintain the desirable insulin sensitizing activity and minimize both the suppression of the thyroid axis and triglyceride elevations”.
In the case of C/C(=C/C=C/C(C)=C/C(=O)O)c1cc(-c2ccccc2F)cc(C(C)C)c1OCC(F)F [Compound L19], the pKi [3, 7] was 9.00, the Emax [4] was 3% and the Emax [5] was 2%. For the same compound, the “PPARγ CV-1 (%) Synergy” value [6] was 47%, the inhibition in vivo at 30 mg/kg [2] was 68% and the “db/db mouse Trigs. (D3)” value [2] was 187%. For the same compound, the “insulin sensitizing activity” value [2] was “maintain the desirable insulin sensitizing activity and minimize both the suppression of the thyroid axis and triglyceride elevations”.
Compound C/C(=C/C=C/C(C)=C/C(=O)O)c1cc(C(C)(C)C)cc(C(C)(C)C)c1OCC(F)(F)F [Compound L23] has a pKi [3, 7] of 7.57, an Emax [4] of 1% and an Emax [5] of 7%. It also gave an inhibition in vivo at 30 mg/kg [2] of 53%.
